The values below come from patent publication US20050171342A1, “Conjugates of biologically active compounds, methods for their preparation and use, formulation and pharmaceutical applications thereof” (priority 2002, published 2005).

Where two headings read alike, the source gives them in different places. A value given as a limit tells only on which side of the number the result lay.

One may read the IC50 as the point on the concentration scale where inhibition reaches its midpoint.

The subject of series [1] is white blood cells (immune cells: neutrophils, monocytes, lymphocytes) versus erythrocytes. The series can be described thus: Immune cell partition / concentrative uptake into white blood cells (immune selectivity ratio). Format: in vitro ADME, mammalian.
Protocol: Freshly drawn heparinised blood or buffy coat preparations are used for the determination of immune cell partition ratios. Buffy coat preparations are preferred. These may be obtained from donor blood by simple centrifugation of whole blood (4795 g for 10 minutes). Following centrifugation, plasma is collected from the surface, after which immune cells are expressed from the donor bags along with the erythrocytes lying immediately below the leukocyte layer. This ensures high yields and a sufficient population of erythrocytes for partition. 5 ml of the resulting cell suspension are dispensed into T25 culture flasks. Substrates are added to a final concentration between 1 and 10 μM and the suspensions incubated at 37° C., in a 5% CO2 atmosphere. For analysis of uptake kinetics, samples are withdrawn at 0, 2, 5, 10, 30, 60, 90, 180, or 240 min after substrate addition. For screening purposes, samples are taken at 0 and 120 minutes.
Cell fractions were prepared using density gradient centrifugation. […]
Uptake of fluorescent compounds is monitored using fluorescence microscopy. Excitation and emission wavelengths depend of the fluorescence label in use. […]
In the next series the test system is E. coli (DH5α). The series can be described thus: Testing of antibiotic activity (TC50, antibiotic dilution assay, turbidity). It is filed as cell-based. Particulars: concentration that inhibits 50% of the growth. On the procedure: The TC50 or MIC procedure for antibiotic sensitivity testing involves an antibiotic dilution assay, which can be performed in microtitre plates. A series of twofold dilutions of each antibiotic are made in the wells, and then all wells are inoculated with a standard amount of the same test organism. After incubation, growth in the presence of the various antibiotics is observed by measuring turbidity.
Bacteria: B. pumilus and E. coli (DH5α)
Bacterial cultures are initiated from the plates for 2 to 3 weeks. After this time period bacteria are streaked out on new plates from the backups strored at −80° C. Due to the lack of resistance of the bacteria, new cultures are not to be initiated from an old plate or any liquid cultures derived from old plates. • Growth medium (GM)(per liter): 10 g Bacto-tryptone, 5 g Bacto-yeast extract, 6 g HEPES (25 mM), 5.4 g NaCl, pH 7.3 • Compound stocks 10 or 100 mM in DMSO stored at −20° C. Procedure • 1. Grow B. pumilus from an LB agar plate in a flask (max. 10% volume) up to about 50 ml in growth medium (GM) • 2. Dilute overnight suspension 1:10 in GM • 3. Determine OD600 of diluted bacterial suspension • 4. Dilute bacterial suspension in GM to an OD600 of 0.03-0.04. (6 ml/plate) • 5. Add 200 μl GM to the outer wells (Row A, Row H, Column 1, Column 12) • 6. Add 100 μl GM to each well starting from C2, row 3. • 7. Controls: Wells B2-B4 growth control. Wells B6-B8 blank. Row C growth inhibition control. • 7.1. To wells B2-B4 add: […], 4 μl DMSO, and 100 μl bacterial suspension adjusted to an OD600 of 0.03-0.04. • 7.2. To wells B6-B8 add: 196 μl GM and 4 μl DMSO • 7.3. Dilute a 10 mM COMPOUND 43 (positive control) stock to 800 μM (120 μl/plate) in GM. Add 100 μl of 800 μM COMPOUND 43 solution to well C2. • 8. Samples • 8.1. Dilute the 10 or 100 mM stock solutions to 800 μM (250 μl/plate) in GM. • 8.2. Add 100 μl of 800 μM sample in duplicates to wells D2/E2 resp. F2/G2. • 8.3. 2-fold serial dilution of all samples and Azithromycin • 8.3.1. […]
11. Determine OD600 on plate reader.

In another series the test system is lymphocytes. Briefly: Proliferation assay (BrdU incorporation, phytohemagglutanin-stimulated lymphocytes). It is filed as cell-based, mammalian. Particulars: for IC50: Lymphocyte; for Ratio (2 h:72 h): ratio of IC50 at 2 h to IC50 at 72 h, lower = better uptake and drug release. An excerpt: Assay to determine the in vitro rate of, for example, lymphocyte proliferation. Lymphocytes are purified out of ant coagulated (CPDA, citrate or heparin) mammalian blood using the Lymphoprep™ system (supplier). Purified cells are counted using a hemocytometer following Trypan Blue staining, and a cell concentration of 1×10^6 cells/ml established in RPMi 1640 medium with 10% FCS and antibiotics as required (all from Biochrome). Following the addition of a cell proliferation stimulant, for example phytohemagglutanin (Sigma) at, for example an end concentration of 5 μg/ml, the cells are incubated with different concentrations of the to be investigated compound in 100 μl end volume in a 96-well microtiter plate in an incubator (37° C., 5% CO2, 95% humidity) for 72 h. Cell proliferation is quantified following BrdU incorporation for 16 h by ELISA and subsequent colorimetric development (Cell Proliferation ELISA BrdU (colorimetric) kit from Roche Diagnostics). The IC50 (μM) values are then calculated, and used to compare compound efficacy. To determine the influence of the T-L-C modification on in vitro cellular drug uptake and pharmacology, the above assay is additionally modified and an additional “wash” step included. In addition to running the assay for 72 h with the compounds to be tested, the assay is also run for just 2 h, then compound is washed away in three serial washing steps using 200 μl of medium at each step, and the cells subsequently incubated for a further 70 h. […] The lower the number, the better the uptake and drug release from the T-L-C in the cells (see results in Table 4 for examples), and improvement over mycophenolic acid.
(Incorporation of labelled thymidine or its analogues reports DNA synthesis.)

The next series deals with HeLa or JURKAT. Briefly: Cytotoxicity assay (Alamar Blue) with guanosine rescue, cell-based IMPDH assay. On the procedure: HeLa cells (DSMZ, ACC 57) and Jurkat cells (DSMZ, ACC 282) in exponential growth phase are exposed for 3 days to test compounds. The number of surviving cells is then determined by the Alamar Blue assay (Serotec Inc.). This assay incorporates a fluorometric growth indicator based on detection of metabolic activity. Specifically, the system incorporates an oxidation-reduction indicator that fluoresces in response to chemical reduction of the growth medium resulting from cell growth. As cells grow in culture, innate metabolic activity results in a chemical reduction of the immediate surrounding environment. Continued growth maintains a reduced environment while inhibition of growth maintains an oxidized environment. […] Fluorescence is monitored at 560 nm (Exc.) and 590 nm Em.
HeLa cells (1×10^3) or JURKAT cells (1×10^3) are plated in 100 μl MEM medium (with Earle's salt; Biochrom KG) containing 10% FBS, 2 mM L-glutamine, and non-essential animo acids in 96-well plates and incubated at 37° C. and 5% CO2 atmosphere. […] The fluorescence is then measured as described above and the LD50 is determined based on a sigmoidal dose response regression. […] Any toxicity still detected can then be ascribed either to other biological effects of the of T-L-C conjugate of mycophenolic acid, or is due to the very high intracellular concentration of mycophenolic acid, following concentrative uptake into the cell.
On the technique in general: Alamar Blue is a resazurin reagent that responds to reducing activity.

The mark [2] stands for this setting: read-out: IC50 (μM) at 2 h, 2 h incubation, compound washed away, further 70 h incubation.
[3] abbreviates: 72 h incubation with compound, read-out: IC50 (μM) at 72 h.

As for `CC[C@H]1OC(=O)[C@H](C)[C@@H](OC2C[C@@](C)(OC)[C@@H](O)[C@H](C)O2)[C@H](C)[C@@H](OC2O[C@H](C)C[C@H](N(C)C)[C@H]2O)[C@](C)(O)C[C@@H](C)/C(=N/OCc2cc(=O)oc3cc(OC)c(OC)cc23)[C@H](C)[C@@H](O)[C@]1(C)O` (stereo partly shown) [Compound 3], the intracellular distribution entry in series [1] (polymorphonuclear cells, fluorescent image (FIG. 3)) is on record as “even distribution with some concentration near the nucleus”.

Turning to `COc1cc(C)c(/C(=C\C(C)=O)CC(N)C(=O)O)cc1OC` (stereo not shown) [Compound 4], the “uptake (speed)” value in series [1] (uptake into immune cells, images during course of uptake) is listed as “rapid”.

For `CC[C@H]1OC(=O)[C@H](C)C(=O)[C@H](C)[C@@H](O[C@@H]2O[C@H](C)CC(N(C)C)[C@H]2O)[C@](C)(O)C[C@@H](C)CN(C)[C@H](C)[C@@H](O)[C@]1(C)O` (stereo partly shown) [Compound 40], the “TC50 in E. coli” value in the series on E. coli (DH5α) is more than 50 µM.

With `CC[C@H]1OC(=O)[C@H](C)[C@@H](O[C@H]2C[C@@](C)(OC)[C@@H](O)[C@H](C)O2)[C@H](C)[C@@H](O[C@@H]2O[C@H](C)C[C@H](N(C)C)[C@H]2O)[C@](C)(O)C[C@@H](C)CN(C)[C@H](C)[C@@H](O)[C@]1(C)O` [Compound 43, 9a-aza-9a-methyl-9-deoxo-9a-homoerythromycin A, reference compound], the “TC50 in E. coli” value with E. coli (DH5α) was 2.3 µM.

In the case of `CC[C@H]1OC(=O)[C@H](C)[C@@H](O[C@H]2C[C@@](C)(OC)[C@@H](O)[C@H](C)O2)[C@H](C)[C@@H](O[C@@H]2O[C@H](C)CC(N(C)C(=O)CN(C)CCO)[C@H]2O)[C@](C)(O)C[C@@H](C)CN(C)[C@H](C)[C@@H](O)[C@]1(C)O` (stereo partly shown) [Compound 45], the “TC50 in E. coli” value in the series with E. coli (DH5α) was more than 50 µM.

Take `CCOC(=O)CC/C(C)=C/Cc1c(OC)c(C)c2c(c1OC(=O)CCC(=O)O[C@@H]1C(N(C)C)C[C@@H](C)O[C@H]1O[C@@H]1[C@@H](C)[C@H](O[C@H]3C[C@@](C)(OC)[C@@H](O)[C@H](C)O3)[C@@H](C)C(=O)O[C@H](CC)[C@@](C)(O)[C@H](O)[C@@H](C)N(C)C[C@H](C)C[C@@]1(C)O)C(=O)OC2` (stereo partly shown) [Compound 69]: the IC50 in the series on lymphocytes (setting [2]) was 2.66 µM; in the series on lymphocytes (setting [3]), 1.4 µM. Further, the “Ratio (2 h:72 h)” value in the series with lymphocytes is reported as 1.9.

Take `CC[C@H]1OC(=O)[C@H](C)[C@@H](O)[C@H](C)[C@@H](O[C@@H]2O[C@H](C)C[C@@H](N(C)CCOC(=O)CC/C(C)=C/Cc3c(O)c4c(c(C)c3OC)COC4=O)[C@@H]2N(C)C)[C@](C)(O)C[C@@H](C)CN(C)[C@H](C)[C@@H](O)[C@]1(C)O` [Compound 74]: the figures for the IC50 with lymphocytes (setting [2]) and in the series on lymphocytes (setting [3]) were 3.2 µM and 2.2 µM, respectively. Besides, the “Ratio (2 h:72 h)” value in the series on lymphocytes was determined as 1.45.

For the compound `CC[C@H]1OC(=O)[C@H](C)C(=O)[C@H](C)[C@@H](O[C@@H]2O[C@H](C)C[C@H](N(C)C)[C@H]2OC(=O)CC/C(C)=C/Cc2c(O)c3c(c(C)c2OC)COC3=O)[C@](C)(O)C[C@@H](C)CN(C)[C@H](C)[C@@H](O)[C@]1(C)O` [Compound 79], the IC50 is 3.16 µM with lymphocytes (setting [2]) and 1.2 µM in the series on lymphocytes (setting [3]). Moreover, in the series with lymphocytes, the “Ratio (2 h:72 h)” value was found to be 2.63.

In the case of `CC[C@H]1OC(=O)[C@H](C)[C@@H](O[C@H]2C[C@@](C)(OC)[C@@H](O)[C@H](C)O2)[C@H](C)[C@@H](O[C@@H]2O[C@H](C)C[C@@H](OC(=O)CC/C(C)=C/Cc3c(O)c4c(c(C)c3OC)COC4=O)[C@@H]2N2CCOCC2)[C@](C)(O)C[C@@H](C)CN(C)[C@H](C)[C@@H](O)[C@]1(C)O` [Compound 80], the results for the IC50 in the series with lymphocytes (setting [2]) and with lymphocytes (setting [3]) were 1.41 µM and 0.4 µM, respectively. For the same compound, the “Ratio (2 h:72 h)” value in the series on lymphocytes is 3.53.

With `COc1c(C)c2c(c(O)c1C/C=C(\C)CCC(=O)OC(COCCCCOCC(CN1CCOCC1)OC(=O)CC/C(C)=C/Cc1c(O)c3c(c(C)c1OC)COC3=O)CN1CCOCC1)C(=O)OC2` (stereo not shown) [Compound 81], the IC50 with lymphocytes (setting [2]) is 1.78 µM; with lymphocytes (setting [3]) it was 1.12 µM. In addition, in the series with lymphocytes, the “Ratio (2 h:72 h)” value turned out to be 1.6.

Turning to `COc1c(C)c2c(c(O)c1C/C=C(\C)CCC(=O)OCCN1CCOCC1)C(=O)OC2` [Mycophenolate mofetil, reference compound], the IC50 came to 1.5 µM in the series with lymphocytes (setting [2]) and 0.33 µM in the series with lymphocytes (setting [3]). The “Ratio (2 h:72 h)” value in the series with lymphocytes is on record as 4.5.

`COc1c(C)c2c(c(O)c1C/C=C(\C)CCC(=O)O)C(=O)OC2` [Mycophenolic acid, reference compound]: the IC50 in the series on lymphocytes (setting [2]) is 2.5 µM; with lymphocytes (setting [3]), 0.54 µM; in the series on HeLa or JURKAT (normal culture conditions, HeLa or JURKAT), less than 2 µM. Besides, the “Ratio (2 h:72 h)” value with lymphocytes amounted to 4.63. Also, the “effect in the presence of guanosine” value with HeLa or JURKAT (50 μM guanosine) is on record as “completely removed”.
